Assays:
Conditions in all cases: Preemergence
[1] = tested on: cocklebur; experiment: Test B pre/postemergence cocklebur; assay type: in vivo, Xanthium strumarium
Text: (§1) Seeds of bedstraw (Galium aparine), blackgrass (Alopecurus myosuroides), surinam grass (Brachiaria decumbens), cocklebur (Xanthium strumarium), corn (Zea mays), crabgrass (Digitaria sanguinalis), giant foxtail (Setaria faberii), morningglory (Ipomoea hederacea), pigweed (Amaranthus retroflexus), rape (Brassica napus), soybean (Glycine max), sugar beet (Beta vulgaris), velvetleaf (Abutilon theophrasti), wheat (Triticum aestivum), wild oat (Avena fatua) and purple nutsedge (Cyperus rotundus) tubers were planted and treated preemnergence with test chemicals formulated in a non-phytotoxic solvent mixture which included a surfactant.
(§2) At the same time, these crop and weed species were also treated with postemergence applications of test chemicals formulated in the same manner. Plants ranged in height from 2 to 18 cm (1- to 4-leaf stage) for postemergence treatments. Plant species in the flood test consisted of rice (Oryza sativa), smallflower flatsedge (Cyperus difformis), duck salad (Heteranthera limosa) and bamyardgrass (Echinochloa crus-galli) grown to the 2-leaf stage for testing. Treated plants and controls were maintained in a greenhouse for twelve to sixteen days, after which all species were compared to controls and visually evaluated. Plant response ratings, summarized in Table B, are based on a scale of 0 to 10 where 0 is no effect and 10 is complete control. A dash (−) response means no test result.

[2] = tested on: soybean; experiment: Test B pre/postemergence soybean; assay type: in vivo, Glycine max
Text: as §1, §2

[3] = tested on: wild oat; experiment: Test B pre/postemergence wild oat; assay type: in vivo, Avena fatua
Text: as §1, §2

[4] = tested on: crabgrass; experiment: Test B pre/postemergence crabgrass; assay type: in vivo, Digitaria sanguinalis
Text: as §1, §2

[5] = tested on: rape; experiment: Test B pre/postemergence rape; assay type: in vivo, Brassica napus
Text: as §1, §2

[6] = tested on: velvetleaf; experiment: Test B pre/postemergence velvetleaf; assay type: in vivo, Abutilon theophrasti
Text: as §1, §2

[7] = tested on: blackgrass; experiment: Test B pre/postemergence blackgrass; assay type: in vivo, Alopecurus myosuroides
Text: as §1, §2

[8] = tested on: corn; experiment: Test B pre/postemergence corn; assay type: in vivo, Zea mays
Text: as §1, §2

[9] = tested on: giant foxtail; experiment: Test B pre/postemergence giant foxtail; assay type: in vivo, Setaria faberii
Text: as §1, §2

[10] = tested on: sugar beet; experiment: Test B pre/postemergence sugar beet; assay type: in vivo, Beta vulgaris
Text: as §1, §2

[11] = tested on: pigweed; experiment: Test B pre/postemergence pigweed; assay type: in vivo, Amaranthus retroflexus
Text: as §1, §2

[12] = tested on: bedstraw; experiment: Test B pre/postemergence bedstraw; assay type: in vivo, Galium aparine
Text: as §1, §2

[13] = tested on: surinam grass; experiment: Test B pre/postemergence surinam grass; assay type: in vivo, Brachiaria decumbens
Text: as §1, §2

[14] = tested on: morningglory; experiment: Test B pre/postemergence morningglory; assay type: in vivo, Ipomoea hederacea
Text: as §1, §2

[15] = tested on: purple nutsedge; experiment: Test B pre/postemergence purple nutsedge; assay type: in vivo, Cyperus rotundus
Text: as §1, §2

[16] = tested on: wheat; experiment: Test B pre/postemergence wheat; assay type: in vivo, Triticum aestivum
Text: as §1, §2

[17] = Rate 62 g/ha, scale of 0 to 10 where 0 is no effect and 10 is complete control
[18] = Rate 125 g/ha, scale of 0 to 10 where 0 is no effect and 10 is complete control
[19] = Rate 250 g/ha, scale 0 (no effect) to 10 (complete control)
[20] = Rate 500 g/ha, scale 0 to 10 (0 no effect, 10 complete control)

For `CC(C)N(C(=O)n1oc(=O)n(C(C)C2=NOCC2)c1=O)c1ccc(F)cc1F` (racemic) [Compound 730], which “Cocklebur plant response rating” value [1, 17] is on record?
Its value is 0.

And the “Plant response rating, Cocklebur” value [1, 18]?
Its value is 0.

What about the “Cocklebur plant response rating” value [1, 19] of the same compound?
Its value is 0.

What about the “Cocklebur plant response rating” value [1, 20] of the same compound?
Its value is 0.

And the “Soybean plant response rating” value [2, 17]?
Its value is 0.

And the “Plant response rating, Soybean” value [2, 18]?
Its value is 0.

What about the “Soybean plant response rating” value [2, 19] of the same compound?
Its value is 2.

What about the “Soybean plant response rating” value [2, 20] of the same compound?
Its value is 3.

What about the “Wild oats plant response rating” value [3, 17] of the same compound?
The value was 0.

And the “Plant response rating, Wild oats” value [3, 18]?
Its value is 4.

What about the “Wild oats plant response rating” value [3, 19] of the same compound?
Its value is 7.

What about the “Wild oats plant response rating” value [3, 20] of the same compound?
The value was 9.

And the “Crabgrass plant response rating” value [4, 17]?
The value was 9.

What about the “Plant response rating, Crabgrass” value [4, 18] of the same compound?
The value was 9.

What about the “Crabgrass plant response rating” value [4, 19] of the same compound?
The value was 9.

And the “Crabgrass plant response rating” value [4, 20]?
Its value is 10.

And the “Rape plant response rating” value [5, 17]?
The value was 0.

And the “Plant response rating, Rape” value [5, 18]?
Its value is 0.

What about the “Rape plant response rating” value [5, 19] of the same compound?
The value was 2.

And the “Rape plant response rating” value [5, 20]?
Its value is 7.

What about the “Velvetleaf plant response rating” value [6, 17] of the same compound?
Its value is 0.

What about the “Plant response rating, Velvetleaf” value [6, 18] of the same compound?
Its value is 2.

What about the “Velvetleaf plant response rating” value [6, 19] of the same compound?
Its value is 6.

And the “Velvetleaf plant response rating” value [6, 20]?
Its value is 6.

What about the “Blackgrass plant response rating” value [7, 17] of the same compound?
Its value is 6.

And the “Plant response rating, Blackgrass” value [7, 18]?
Its value is 9.

What about the “Blackgrass plant response rating” value [7, 19] of the same compound?
Its value is 10.

And the “Blackgrass plant response rating” value [7, 20]?
Its value is 10.

And the “Corn plant response rating” value [8, 17]?
The value was 0.

What about the “Plant response rating, Corn” value [8, 18] of the same compound?
Its value is 3.

And the “Corn plant response rating” value [8, 19]?
Its value is 4.

What about the “Corn plant response rating” value [8, 20] of the same compound?
The value was 9.

What about the “Giant foxtail plant response rating” value [9, 17] of the same compound?
The value was 10.

And the “Plant response rating, Giant foxtail” value [9, 18]?
Its value is 10.

And the “Giant foxtail plant response rating” value [9, 19]?
Its value is 10.

And the “Giant foxtail plant response rating” value [9, 20]?
Its value is 10.

What about the “Sugarbeets plant response rating” value [10, 17] of the same compound?
Its value is 0.

And the “Plant response rating, Sugarbeets” value [10, 18]?
The value was 2.

What about the “Sugarbeets plant response rating” value [10, 19] of the same compound?
The value was 4.

And the “Sugarbeets plant response rating” value [10, 20]?
The value was 7.

And the “Redroot pigweed plant response rating” value [11, 17]?
The value was 6.

And the “Plant response rating, Redroot pigweed” value [11, 18]?
Its value is 9.

And the “Redroot pigweed plant response rating” value [11, 19]?
The value was 10.

And the “Redroot pigweed plant response rating” value [11, 20]?
Its value is 10.

What about the “Bedstraw plant response rating” value [12, 17] of the same compound?
The value was 0.

What about the “Plant response rating, Bedstraw” value [12, 18] of the same compound?
Its value is 0.

What about the “Bedstraw plant response rating” value [12, 19] of the same compound?
The value was 0.

And the “Bedstraw plant response rating” value [12, 20]?
The value was 4.

And the “B. signalgrass plant response rating” value [13, 17]?
Its value is 0.

And the “Plant response rating, B. signalgrass” value [13, 18]?
Its value is 0.

What about the “B. signalgrass plant response rating” value [13, 19] of the same compound?
Its value is 7.

What about the “B. signalgrass plant response rating” value [13, 20] of the same compound?
Its value is 9.

What about the “Morningglory plant response rating” value [14, 17] of the same compound?
The value was 0.

And the “Plant response rating, Morningglory” value [14, 18]?
The value was 0.

What about the “Morningglory plant response rating” value [14, 19] of the same compound?
The value was 0.

What about the “Morningglory plant response rating” value [14, 20] of the same compound?
Its value is 2.

What about the “Nutsedge plant response rating” value [15, 17] of the same compound?
The value was 0.

What about the “Plant response rating, Nutsedge” value [15, 18] of the same compound?
Its value is 0.

And the “Nutsedge plant response rating” value [15, 19]?
Its value is 3.

And the “Nutsedge plant response rating” value [15, 20]?
Its value is 3.

What about the “Wheat plant response rating” value [16, 17] of the same compound?
Its value is 0.

And the “Plant response rating, Wheat” value [16, 18]?
The value was 0.

And the “Wheat plant response rating” value [16, 19]?
Its value is 0.

What about the “Wheat plant response rating” value [16, 20] of the same compound?
Its value is 0.

Reference: patent publication US6737383B1, “Herbicidal oxadiazolidines” (priority 1999, dated 2004)
